Data: PubChem BioAssay AID401 (SGCOxCompounds, 2006)

Target: Tyrosine-protein phosphatase non-receptor type 7 (Homo sapiens) (UniProt P35236)
Experiment: inhibition of HePTP dephosphorylation activity – biochemical, DiFMUP fluorescence, recombinant human enzyme (AID 401)
Settings: recombinant PTPN7, DiFMUP fluorescence, at 50 µM, 25 °C, DTT 5 mM, hits give high values

Sequence of Tyrosine-protein phosphatase non-receptor type 7 (Homo sapiens) (P35236 whole entry, looked up): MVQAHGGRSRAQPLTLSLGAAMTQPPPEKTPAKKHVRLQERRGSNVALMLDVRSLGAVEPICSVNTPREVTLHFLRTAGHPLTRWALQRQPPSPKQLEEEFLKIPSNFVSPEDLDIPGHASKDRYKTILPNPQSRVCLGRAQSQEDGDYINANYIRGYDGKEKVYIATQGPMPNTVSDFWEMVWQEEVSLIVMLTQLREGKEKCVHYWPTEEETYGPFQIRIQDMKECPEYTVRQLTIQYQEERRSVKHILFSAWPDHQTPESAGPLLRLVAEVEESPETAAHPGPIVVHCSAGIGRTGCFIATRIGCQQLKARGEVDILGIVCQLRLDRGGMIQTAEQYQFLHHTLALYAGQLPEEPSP

SMILES | inhibition (enzyme 55 ng/mL) [%] | inhibition (enzyme 37.6 ng/mL) [%]
CCn1nc(/C=C/c2ccccc2)nc2c(=O)n(C)c(=O)nc1-2 | 39 | –
CC(=O)c1ccc2c(c1)C1C=CCC1C(C(=O)O)N2 (configuration not stated) | 89 | –
Oc1c(Cl)c(Cl)c(O)c2nsnc12 | 24 | –
Cc1ccc(C)n1-c1ccc(C(=O)O)cc1O | 47 | –
[NH-]CO.[NH-]CO.[NH-]CO.[NH-]CO.[O]=[V][O][V]=[O] | 58 | –
Cc1ccc2nc(-c3cc(N=Cc4cc(C(=O)O)ccc4O)ccc3O)[nH]c2c1 | 98 | –
O=C([O-])c1ccccn1.OO.OO.[K+].[K+].[O]=[V] | – | 71.5
O=C(O)c1ccc([O-])cn1.OO.OO.[K+].[K+].[O]=[V] | 76 | –
O=C(O)c1ccc(O)c(C=Nc2ccc3oc(-c4ccccc4)nc3c2)c1 | 31 | –
CC(C)CCN1C(=O)c2ccc(C(=O)Nc3ccc(O)cc3C(=O)O)cc2C1=O | 45 | –
CCn1nc(-c2ccccc2)nc2c(=O)n(C)c(=O)nc1-2 | 16 | –
CCn1nc(-c2ccc(Cl)cc2)nc2c(=O)n(C)c(=O)nc1-2 | 58 | –
O=C1NC(=S)S/C1=C\C=C\c1ccc([N+](=O)[O-])o1 | 99 | –
CC(C)CN1C(=O)c2ccc(C(=O)Nc3ccc(O)cc3C(=O)O)cc2C1=O | 26 | –
CCn1nc(/C=C/c2ccccc2)[n+](=O)c2c(=O)n(C)c(=O)[nH]c21 | 32 | –
O=C1NC(=S)NC(=O)C1=C/C=C/c1ccco1 | 97 | –
Cn1nc(/C=C/c2ccccc2)nc2c(=O)n(C)c(=O)nc1-2 | 45 | –
O=C(O)c1ccc(O)c(C=Nc2ccc3oc(-c4cc(Cl)ccc4Cl)nc3c2)c1 | 39 | –
O=C(O)c1ccc(O)c(C=Nc2cccc(-c3nc4ccccc4o3)c2)c1 | 40 | –
O=C(O)c1ccc(O)cn1.OO.[O]=[V] | – | 58.5
O=C(O)c1ccc(O)c(C=Nc2ccc3oc(-c4cccc(Cl)c4)nc3c2)c1 | 25 | –

SMILES | inhibition (enzyme 55 ng/mL) [%] | inhibition (enzyme 37.6 ng/mL) [%]
CCOC(=O)c1ccc(N=Cc2cc(C(=O)O)ccc2O)cc1 | 39 | –
Cc1c(Cl)c(C)c([N+](=O)[O-])c(O)c1C=Nc1ccc(O)cc1C(=O)O | 62 | –
NC1=NC(=O)/C(=C/C=C/c2ccc([N+](=O)[O-])o2)S1 | 94 | –
COc1ccc(-c2nc3cc(N=Cc4cc(C(=O)O)ccc4O)ccc3o2)cc1 | 80 | –
O=C(Nc1ccc(O)cc1C(=O)O)c1ccc2c(c1)C(=O)N(CC1CCCO1)C2=O (configuration not stated) | 35 | –
O=C(COc1ccc([N+](=O)[O-])cc1)Nc1ccc(O)cc1C(=O)O | 13 | –
O=C(O)c1ccc(O)c(C=Nc2ccc3oc(-c4ccc(F)cc4Cl)nc3c2)c1 | 100 | –
COc1cccc(-c2nc3cc(N=Cc4cc(C(=O)O)ccc4O)ccc3o2)c1 | 56 | –
Cc1cc(C)c(N2C(=O)c3ccc(C(=O)Nc4ccc(O)cc4C(=O)O)cc3C2=O)c(C)c1 | 44 | –
CC1=C(C)OC(Nc2ccc(Cl)cc2C(=O)O)C=C1 (configuration not stated) | 25 | –
O=C(O)c1ccc(O)c(/C=N/N(CCO)C2=NS(=O)(=O)c3ccccc32)c1 | 57 | –
Cc1ccc(N=Cc2cc(C(=O)O)ccc2O)c(O)c1 | 42 | –
COc1ccc(OC)c(N=Cc2cc(C(=O)O)ccc2O)c1 | 31 | –
O=C(O)c1ccc(O)c(C=Nc2ccc3oc(-c4cccc(Cl)c4Cl)nc3c2)c1 | 61 | –
OO.OO.[K+].[O]=[V].c1ccc(-c2ccccn2)nc1 | 69 | –
Cc1ccc(C)n1-c1cc(C(=O)O)ccc1O | 77 | –
Cn1nc(-c2ccccc2)nc2c(=O)n(C)c(=O)nc1-2 | – | 37
OO.OO.[K+].[O]=[V].c1cnc2c(c1)ccc1cccnc12 | – | 55
O=C(O)c1ccc(O)c(N2C(=O)Nc3ccccc3N2O)c1 | 41 | –
CN(N=O)c1ccc(O)c(O)c1 | 92 | –
Cc1cccc(O)c1N=Cc1cc(C(=O)O)ccc1O | 37 | –
